Legend:
[1] = Inhibition of HIV-1 protease in a cell culture assay using HIV-1 IIIB infected H9 cells.
[2] = molecular target: Human immunodeficiency virus type 1 protease (Human immunodeficiency virus 1, UniProt Q72874); experiment: Inhibitory activity against HIV-1 protease in tandem assay.
[3] = molecular target: Human immunodeficiency virus type 1 protease (Human immunodeficiency virus 1) (UniProt Q72874); experiment: Inhibition of HIV-1 protease in a cell culture assay using HIV-1 IIIB infected H9 cells.; assay type: functional, cell-based
[4] = system: H9; experiment: Inhibitory activity against HIV-1 Protease in a cell culture assay using HIV-1 IIIB infected H9 cells at 3 uM; assay type: functional; conditions: Homo sapiens
[5] = system: H9; experiment: Inhibitory activity against HIV-1 Protease in a cell culture assay using HIV-1 IIIB infected H9 cells at 1 uM; assay type: functional; conditions: Homo sapiens
[6] = molecular target: Human immunodeficiency virus type 1 protease (Human immunodeficiency virus 1) (UniProt Q72874); experiment: Inhibitory activity against HIV-1 Protease in tandem assay; conditions: concentration not given here

| Structure (SMILES) | Ki [2] [nM] | IC90 [3] [nM] | further results |
| --- | --- | --- | --- |
| CCCC1(CCc2ccccc2)CC(=O)C(C(CC)c2cccc(NS(=O)(=O)c3cccc4cccnc34)c2)=C(O)O1 (stereo not given) | 3.1 | – | IC50 [1]: 1000 nM |
| CCC(C1=C(O)OC(CCc2ccccc2)(CCc2ccccc2)CC1=O)c1cccc(NS(=O)(=O)c2cn(C)cn2)c1 (stereo not given) | 1 | 2000 | – |
| CCC[C@@]1(CCc2ccccc2)CC(O)=C([C@H](CC)c2cccc(NS(=O)(=O)c3ccc(C#N)cn3)c2)C(=O)O1 | – | – | IC50 [1]: 40 nM |
| CCCC1(CCc2ccccc2)CC(=O)C(C(c2cccc(NS(=O)(=O)c3ccc([N+](=O)[O-])cn3)c2)C(C)(C)C)=C(O)O1 (stereo not given) | 2.3 | > 3000 | – |
| CCCC1(CCC)CC(=O)C(C(c2cccc(NS(=O)(=O)c3cn(C)cn3)c2)C2CC2)=C(O)O1 (stereo not given) | 0.52 | 3000 | – |
| CCC(C1=C(O)OC(COCCOCCOC)(COCCOCCOC)CC1=O)c1cccc(NS(=O)(=O)c2cn(C)cn2)c1 (stereo not given) | 28 | – | inhibition at 3 µM [4]: 0% |
| CCCC1(CCc2ccccc2)CC(=O)C(C(c2cccc(NS(=O)(=O)c3ccc(C#N)cc3)c2)C(C)(C)C)=C(O)O1 (stereo not given) | 12 | 3000 | – |
| CCC[C@]1(CCc2ccccc2)CC(=O)C(C(CC)c2cccc(NS(=O)(=O)c3ccc(C(F)(F)F)cn3)c2)=C(O)O1 (stereo not given in full) | 0.018 | 840 | – |
| CCCC1(CCc2ccccc2)CC(=O)C(C(c2cccc(NS(=O)(=O)c3ccc(C#N)cn3)c2)C(C)(C)C)=C(O)O1 (stereo not given) | 1.9 | 340 | – |
| CCCC1(CCc2ccccc2)CC(=O)C(C(c2cccc(NS(=O)(=O)c3cn(C)cn3)c2)C(C)(C)C)=C(O)O1 (stereo not given) | 1.2 | 690 | – |
| CCCC1(CCc2ccccc2)CC(=O)C(Cc2cccc(NS(=O)(=O)c3cn(C)cn3)c2)=C(O)O1 (stereo not given) | 13 | – | inhibition at 1 µM [5]: 0% |
| CCCCCC1(CCCCC)CC(=O)C(C(CC)c2cccc(NS(=O)(=O)c3cn(C)cn3)c2)=C(O)O1 (stereo not given) | 2.6 | < 3000 | – |
| CCC[C@@]1(CCc2ccccc2)CC(=O)C([C@@H](CC)c2cccc(NS(=O)(=O)c3ccc(C(F)(F)F)cn3)c2)=C(O)O1 (stereo in doubt; 39d) | – | – | IC50 [1]: 410 nM |
| CCCC1(CCc2ccccc2)CC(=O)C(C(CC)c2cccc(NS(=O)(=O)CCC)c2)=C(O)O1 (stereo not given) | > 1 | – | – |
| CCCC1(CCc2ccccc2)CC(=O)C(C(CC)c2cccc(NS(=O)(=O)c3cn(C)cn3)c2)=C(O)O1 (stereo not given) | 1.2 | – | – |
| CCCC1(CCc2ccccc2)CC(=O)C(C(c2cccc(NS(=O)(=O)c3ccc(N)cn3)c2)C(C)(C)C)=C(O)O1 (stereo not given) | 0.2 | 740 | – |
| CCCC1(CCc2ccccc2)CC(=O)C(C(c2cccc(NS(=O)(=O)c3ccc(C(F)(F)F)cn3)c2)C(C)(C)C)=C(O)O1 (stereo not given) | 4.3 | 990 | – |
| CCCC1(CCc2ccccc2)CC(=O)C(C(c2cccc(NS(=O)(=O)c3cn(C)cn3)c2)C2CC2)=C(O)O1 (stereo not given) | 0.71 | 1000 | – |

| Structure (SMILES) | Ki [2] [nM] | IC90 [3] [nM] | further results |
| --- | --- | --- | --- |
| CCCC1(CCC)CC(=O)C(C(c2cccc(NS(=O)(=O)c3cn(C)cn3)c2)C(C)(C)C)=C(O)O1 (stereo not given) | 0.87 | 1000 | – |
| CCCC1(CCC)CC(=O)C(C(CC)c2cccc(NS(=O)(=O)c3cn(C)cn3)c2)=C(O)O1 (stereo not given) | 1.8 | 2000 | – |
| CCCC1(CCc2ccccc2)CC(=O)C(C(CC)c2cccc(NS(=O)(=O)c3ccc(C#N)cc3)c2)=C(O)O1 (stereo not given) | 8.2 | – | IC50 [1]: 1100 nM |
| CCC(C1=C(O)OC(C23C[C@H]4C[C@@H](C2)C[C@@H](C3)C4)CC1=O)c1cccc(NS(=O)(=O)c2cn(C)cn2)c1 (stereo not given in full) | 23 | – | – |
| CCCC1(CCc2ccc(F)cc2)CC(=O)C(C(CC)c2cccc(NS(=O)(=O)c3cn(C)cn3)c2)=C(O)O1 (stereo not given) | 3 | 2000 | – |
| CCCC1(CCc2ccccc2)CC(=O)C(C(CC)c2cccc(NS(=O)(=O)c3ccc(F)cc3)c2)=C(O)O1 (stereo not given) | 6.1 | – | IC50 [1]: 1200 nM |
| CCC[C@]1(CCc2ccccc2)CC(=O)C([C@H](CC)c2cccc(NS(=O)(=O)c3ccc(C#N)cn3)c2)=C(O)O1 | 0.04 | 890 | – |
| CCC[C@@]1(CCc2ccccc2)CC(=O)C([C@H](CC)c2cccc(NS(=O)(=O)c3cn(C)cn3)c2)=C(O)O1 | 0.06 | 560 | – |
| CCC(C1=C(O)OC(CC(C)C)(CC(C)C)CC1=O)c1cccc(NS(=O)(=O)c2cn(C)cn2)c1 (stereo not given) | 3 | 7400 | – |
| CCC(C1=C(O)OC(CCC2CC2)(CCC2CC2)CC1=O)c1cccc(NS(=O)(=O)c2cn(C)cn2)c1 (stereo not given) | 1.7 | 2900 | – |
| CCC[C@@]1(CCc2ccccc2)CC(O)=C([C@H](CC)c2cccc(NS(=O)(=O)c3ccc(C(F)(F)F)cn3)c2)C(=O)O1 [TIPRANAVIR] | 0.008 | – | IC50 [1]: 30 nM |
| CCCC1(CCC)CC(=O)C(Cc2cccc(NS(=O)(=O)c3cn(C)cn3)c2)=C(O)O1 | – | – | inhibition [6]: 50%; inhibition at 3 µM [4]: 5% |
| CCC[C@@]1(CCc2ccccc2)CC(=O)C([C@@H](CC)c2cccc(NS(=O)(=O)c3ccc(C(F)(F)F)cn3)c2)=C(O)O1 (stereo in doubt; 39c) | – | – | IC50 [1]: 1700 nM |
| CCC[C@]1(CCc2ccccc2)CC(=O)C([C@H](CC)c2cccc(NS(=O)(=O)c3cn(C)cn3)c2)=C(O)O1 | 0.12 | 1000 | – |
| CCCC1(CCc2ccccc2)CC(=O)C(C(CC)c2cccc(NS(=O)(=O)c3ccccc3)c2)=C(O)O1 (stereo not given) | – | – | IC50 [1]: 1600 nM |
| CCC[C@@]1(CCc2ccccc2)CC(=O)C([C@@H](CC)c2cccc(NS(=O)(=O)c3cn(C)cn3)c2)=C(O)O1 | 0.3 | > 1000 | – |
| CCCC1(CCc2ccccc2)CC(=O)C(C(CC)c2cccc(NS(=O)(=O)c3ccc(C#N)cn3)c2)=C(O)O1 (stereo not given) | 0.1 | 470 | – |
| CCC[C@@]1(CCc2ccccc2)CC(=O)C([C@@H](CC)c2cccc(NS(=O)(=O)c3ccc(C#N)cn3)c2)=C(O)O1 | 0.1 | 1000 | – |
